Tests used:
Format in all cases: in vivo
[1] = test system: seeds; experiment: Seed treatment observations with CPPA, iron-removed CPPA and Fe; conditions: treating seeds with Fe alone
Excerpt: These observations support the premise that the combination of CPPA and Fe are synergistic in their interaction and biological effect on plants and/or seeds.

[2] = test system: tomato plants (Lycopersicon es.); experiment: Experiment Fe-4: addition of low levels of iron to CPPA, foliar application; conditions: for Leaf # / Plt. Ht. / Plt. Wt. / Root Wt. / Shoot Wt. / Vigor: foliar
Excerpt: Experiment Fe-4: The purpose of this experiment was to determine if the addition of low levels of iron to a CPPA sample containing lower than typical amounts of iron (e.g., Fe/TOC=0.135) would increase the biological response of plants. Nominal Fe/TOC ratios for CPPA range from 0.10 to 0.28 but the optimum ratio for “as-is” samples of CPPA, as determined in the previous experiments, is between 0.2 and 0.25. Thus, for this experiment, non-agrochemically effective amounts of iron were combined with CPPA samples. Tomato plants (Lycopersicon es.) were produced from seed and transplanted into 3 inch by 3 inch pots. There were 16 treatments plus an untreated check with 20 replicates per treatment arranged in a Randomized Complete Block design. Pots were treated with water (UTC), or CPPA only (3 different rates), Fe only (3 different rates), or CPPA and Fe at each of the rates. The CPPA rates corresponded to 260, 520, and 1040 mg organic carbon (TOC) per hectare and the Fe rates corresponded to 130, 260, and 520 mg Fe per hectare. All pots were treated by foliar application immediately after transplanting. Ten days after the application, ten of the plants were harvested and assessed for vigor, leaf number, plant height, plant weight, root weight, and shoot weight. […] Additional application rates of CPPA and Fe were evaluated with similar synergistic results observed for the combination of CPPA with amounts of iron. Twenty days after transplanting, the remaining ten plants in each treatment were assessed.

[3] = test system: tomato plants (Lycopersicon es.); experiment: Experiment Salt-2: foliar treatment of CPPA/salt formulations; conditions: ten and twenty day assessments averaged
Protocol: There were a total of 8 treatments plus an untreated check, with 20 replicates per treatment arranged in a randomized block design. Aqueous solutions of CPPA (1000 mg TOC/L) and salt (5000 mg/L) were used for this experiment and all plants were treated with a foliar application at the time they were transplanted into the pots. Each treatment contained CPPA alone, salt alone, or CPPA plus salt. Two rates of CPPA were used; the first was equivalent to 260 mg of TOC per hectare and a second equivalent to 1040 mg of TOC per hectare. […] All treatments were diluted with water to provide a final spray volume equivalent to 208 lit per hectare, applied with a spray bottle, with just enough spray solution to wet the leaf surface of each plant. Ten days after applications, ten each of the plant samples in each treatment were assessed for vigor, leaf number, plant height, plant weight, root weight, and shoot weight. Assessments were repeated at twenty days with the remaining ten plants of each treatment and the results were averaged. FIG. 17 depicts observed vigor, leaf number, plant height, plant weight, root weight, and shoot weight results for treatments to the tomato plants with 0 mg and 260 mg CPPA/ha application rate with variable salt application rates, which are also summarized in Table 4.

[4] = test system: tomato plants (Lycopersicon es.); experiment: Experiment Salt-1: CPPA/NaCl composition, foliar application
Protocol: Experiment Salt-1: […] There were a total of 5 treatments plus an untreated check, each with 10 replicates per treatment arranged in a randomized block design. […] Each treatment comprised samples treated with CPPA alone, salt alone, or CPPA plus salt. Two rates of CPPA were used; the first was equivalent to 520 mg of TOC per hectare and a second equivalent to 1040 mg of TOC per hectare. Salt was applied at a rate equivalent to 2.6 g of salt per hectare. All treatments were diluted with water to provide a final spray volume equivalent to 208 lit per hectare, made with a spray bottle, with just enough spray solution to wet the leaf surface of each plant. Ten days after treatment the plants were assessed for vigor, leaf number, plant height, plant weight, root weight, shoot weight, and leaf conductance using a SPAD meter and are summarized in Table 8 and depicted in FIGS. 10-16.

[5] = test system: wheat seeds (Triticum aestivum); experiment: Experiment Salt-3: soil treatments of CPPA/salt formulations; conditions: soil drench, 28 days after treatment
Protocol: For this experiment, wheat seeds (Triticum aestivum) were planted in small pots, approximately 1 inch in diameter and an inch in depth. There were a total of 8 treatments plus an untreated check, with 20 replicates per treatment arranged in a randomized block design. […] Treatments contained CPPA alone, salt alone, or CPPA plus salt. Two rates of CPPA were used; the first was equivalent to 520 mg of TOC per hectare and a second equivalent to 1040 mg of TOC per hectare. […] Twenty eight days after treatment the plants were assessed for plant weight, root weight, and shoot weight. FIG. 19 depicts plant weight, root weight, and shoot weight results for treatments with 520 mg CPPA/ha in combination with varying salt rates, which are summarized in Table 12.

[6] = CPPA 260 mg TOC/ha and/or Fe 130 mg Fe/ha (FeSO4), second assessment, 20 days after application
[7] = CPPA 520 mg TOC/ha and/or Fe 130 mg Fe/ha (FeSO4), 20 days after application
[8] = CPPA 1040 mg TOC/ha and/or Fe 520 mg Fe/ha (FeSO4), first assessment, 10 days after application
[9] = CPPA 1040 mg TOC/ha and/or Fe 520 mg Fe/ha (FeSO4), second assessment, 20 days after application
[10] = CP 1040 mg/ha and/or NaCl 1300 mg/ha
[11] = NaCl 2600 mg/ha alone or with CP 1040 mg/ha
[12] = CPPA 520 mg TOC/ha and/or NaCl 2600 mg/ha, ten days after treatment
[13] = CP 520 mg/ha and/or NaCl 1300 mg/ha
[14] = CP 1040 mg TOC/ha and/or NaCl 1300 mg/ha
[15] = NaCl 2600 mg/ha alone or with CP 520 mg/ha
[16] = NaCl 2600 mg/ha alone or with CP 1040 mg TOC/ha

## O=S(=O)([O-])[O-].[Fe+2] [Fe, FeSO4]
[1]
  root development and shoot development: negative effect on root development and on shoot development
[2]; [6]
  Leaf #: 6.3 ab
  Plt. Ht.: 6.4 abc
  Plt. Wt.: 6.4 c
  Root Wt.: 3.0 c
  Shoot Wt.: 3.4 cd
  Vigor: 2.1 c
[2]; [7]
  Leaf #: 6.3 ab
  Plt. Ht.: 6.4 ab
  Plt. Wt.: 6.4 b
  Root Wt.: 3.0 b
  Shoot Wt.: 3.4 ab
  Vigor: 2.1 c
[2]; [8]
  Leaf #: 6.6 ab
  Plt. Ht.: 4.2 b
  Plt. Wt.: 4.9 b
  Root Wt.: 1.4 bc
  Shoot Wt.: 3.6 b
  Vigor: 3.8 b
[2]; [9]
  Leaf #: 5.1 b
  Plt. Ht.: 6.3 b
  Plt. Wt.: 4.5 b
  Root Wt.: 1.6 bc
  Shoot Wt.: 2.9 cd
  Vigor: 2.5 c
[2]; high application rate of CPPA alone or of Fe alone, FIG. 9F, Table 4
  biological effect on plant, root and shoot weights relative to UTC: apparent slightly negative biological effect on the plant, root and shoot weights, although it was not statistically significant

## [Cl-].[Na+] [NaCl]
[3]; [10]
  Leaf #: 4.7 de
  Plt. Ht.: 4.7 cd inches
  Plt. Wt.: 3.7 d grams
  Root Wt.: 1.4 cd grams
  Shoot Wt.: 2.3 e grams
  Vigor (1-5): 2.9 de
[3]; [11]
  Leaf #: 4.1 f
  Plt. Ht.: 4.1 e inches
  Plt. Wt.: 3 de grams
  Root Wt.: 1.0 d grams
  Shoot Wt.: 2.0 ef grams
  Vigor (1-5): 2.2 g
[4]; [12]
  Leaf #: 5.3 e
  Plt. Ht.: 3.5 b
  Plt. Wt.: 2.7 c
  Root Wt.: 0.8jc
  SPAD (leaf conductance using a SPAD meter): 24.2 b
  Shoot Wt.: 2.0 c
  Vigor: 2.4 b
[4]; Table 8, ten days
  phytotoxicity of salt and its mitigation: expected poorest results, indicating a significant amount of phytotoxicity
[5]; [13]
  Plt. Wt.: 2.1cd
  Root Wt.: 0.4bc
  Shoot Wt.: 1.8c
[5]; [14]
  Plt. Wt.: 2.1de
  Root Wt.: 0.4cd
  Shoot Wt.: 1.8 days
[5]; [15]
  Plt. Wt.: 2 days
  Root Wt.: 0.3cd
  Shoot Wt.: 1.7c
[5]; [16]
  Plt. Wt.: 2e
  Root Wt.: 0.3de
  Shoot Wt.: 1.7 days

From patent US12193442B2, “Modulation of plant biology” (FBSCIENCES HOLDINGS, INC., priority 2012, dated 2025)
